{"source": "patent US20150024505A1", "about": "“APPARATUS FOR EVALUATING CARBONATE SOLUBILITY” (SAUDI ARABIAN OIL COMPANY, priority 2013, published 2015)", "origin": "cited, not measured here", "conditions": "in water; 10,000 psig and 300° F. required to reach this level"}
{"smiles": "O=C=O", "note": "[CO2]", "values": [{"measurement": "limit of CO2 solubility", "result": "about 150 scf/stb of water"}]}
